Reference: PMC10714399, “Open Source Antibiotics: Simple Diarylimidazoles Are Potent against Methicillin-Resistant Staphylococcus aureus” (ACS Infectious Diseases, 2023)
≈ marks a conversion by molar mass, not a printed value. Entries after “also recorded” stand apart in the source; their conditions may differ. Where two headings read alike, the source gives them in different places.

What was measured:
[1] = Human plasma protein binding (PPB); assay type: in vitro ADME; details: human, plasma
[2] = system: Enterococcus faecalis ATCC 51299 (vanA-positive; vancomycin-resistant); experiment: In vitro antibacterial activity, MIC (UCL), VRE; assay type: cell-based
How it was run: (§1)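 Strains: MRSA NCTC 13373, MSSA ATCC 25923, vanA E. faecalis ATCC 51299. Overnight agar growth suspended in PBS, A600 0.1, diluted 1:100 into isosensitest broth; 2-fold compound dilutions 32–0.03 μg/mL, ≤2% DMSO. Vancomycin QC.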

[3] = Human liver microsome intrinsic clearance; assay type: in vitro ADME; details: human liver microsomes, NEU; read-out: HLM CLint (NEU)
[4] = HEK293 toxicity, 96-well dose-response (UCL; MTT or resazurin, with or without recovery); assay type: cell-based, human; details: human, HEK293 cells; read-out: HEK293 CC50
Procedure: (§2) The importance of balancing potency vs MRSA and cytotoxicity led us to examine a subset of compounds more thoroughly for toxicity against human embryonic kidney cell line HEK293. […] Dmax is a parameter that quantifies toxicity at the highest tested concentration (32 μg/mL for all compounds), calculated as reciprocal percentage of viable cells (100 – viability%), where cells either were allowed to recover or viability was measured immediately after treatment. […] Our efforts focused on trying to replicate the original toxicity experiments (by CO-ADD) with tamoxifen using a protocol modified for use with 96-well plates. Given the variability of protocols and results in the literature,[28] it was important to compare with a standard protocol we have reliably used in our own laboratories.[29]−[33] […] Truly “non-toxic” compounds might be expected to show Dmax < 50% for all experiment variations, e.g., 861. […] A large spread of Dmax values comparing recovery and non-recovery conditions larger than 20% is perhaps indicative of a mechanism of toxicity that persists beyond exposure, i.e., cytotoxic compounds that continue to induce toxicity as cells recover and restart dividing, for example, compounds 865, 870, 871, 980, and 981. […] This variability could be driven by interference of the compounds with the fluorescence readout or resorufin build-up as previously described.[27]
(§3) HEK293 cells (ATCC, UK) at passage 32 were a kind gift from Dr. Ben Allsop from the Translational Research Office at University College London. Cells were tested for mycoplasma using a MycoAlert Detection Kit (Lonza, Switzerland) as per manufacturer instructions, frozen stocks were stored in liquid nitrogen, and cells were re-tested whenever a new aliquot was thawed.
(§4) Cells were maintained in DMEM (Sigma-Aldrich, UK) supplemented with 10% heat-inactivated FBS (Sigma-Aldrich, UK), 1% GlutaMax (ThermoFisher, UK), and 1% sodium pyruvate (Lonza, UK) without antibiotics in an incubator at 37 °C and 5% CO2. Media was changed every 2 days, and cells were passaged every 3–4 days at a subcultivation ratio of 1:10, by detaching the cells with phenol-free TrypLE Express (ThermoFisher, UK), after washing with HBSS Ca^2+/Mg^2+ (ThermoFisher, UK). Up to 55 passages were used throughout the experiments.
(§5) (a) Cell seeding: At subculture, a dilute solution of cells was counted using Trypan Blue (Sigma-Aldrich, UK) and a hemocytometer. Cells were further diluted to 7000 or 50 000 cells/mL for experiments.
(§6) For recovery experiments, 700 cells (100 μL) were seeded in 96-well plates and incubated for 48 h while cells reached exponential phase.
(§7) For non-recovery experiments, 5000 cells (100 μL) were seeded in 96-well plates and incubated for 48 h while cells reached confluence. This is the same number of cells as per the CO-ADD protocol where 384-well plates were used, but we extended the growth time to 48 h to produce a similar confluency.
(§8) Stock solutions were diluted 100 times (to 1% DMSO) to 32 μg/mL in full medium (vortexed briefly) and then serially diluted using a digital pipet (Explorer, Eppendorf, Germany) at a dilution factor of 2 to a final concentration of […].
(§9) (c) Dosing experiments: At the specified time after seeding, media was removed from cells, cells were washed with HBSS Ca^2+/Mg^2+ (100 μL), and 100 μL of diluted compounds were added as per Supporting Information - Biology, Figure S4, and incubated for 24 h.
(§10) After treatment, solutions were removed, and cells were washed with HBSS Ca^2+/Mg^2+. For non-recovery experiments, viability was determined immediately as described below.
(§11) For recovery experiments, fresh media was added to plates (100 μL) and cells were returned to the incubator for another 72 h, after which viability was recorded as described below.
(§12) i. MTT assay: 3-[4,5-Dimethylthiazol-2-yl]-2,5-diphenyltetrazolium bromide (MTT) (Sigma-Aldrich, UK) was dissolved in sterile PBS at 5 mg/mL with sonication (20 min), protected from light. […]

[5] = system: Staphylococcus aureus NCTC 13373 (mecA-positive; methicillin-resistant); experiment: In vitro antibacterial activity, MIC (UCL School of Pharmacy assay), MRSA; assay type: cell-based; details: for MIC: Staphylococcus aureus
How it was run: as §1

[6] = Aqueous solubility; assay type: physicochemical; details: thermodynamic from solid
[7] = LogD7.4 (Chrom Log D); assay type: physicochemical; details: chromatographic system (Chrom Log D); pH 7.4, NEU; read-out: LogD 7.4 (NEU)
From the text: To guide our initial SAR exploration work, we obtained liver microsomal intrinsic clearance data for 5 of the 18 compounds assayed by CO-ADD (Supporting Information - CDCO Report and Supporting Information - Biology). We then acquired intrinsic clearance (CLint), plasma protein binding (PPB), and solubility data on further compounds throughout the SAR campaign (Supporting Information - Biology, Tables S3 and S4). […] The more polar compounds (lower LogD) had reduced PPB and were more metabolically stable.
Table S4. ADME and Pharmacokinetics: compounds only appearing in the Supplementary […]
MRSA Aqueous HLM CLint Rat Hep CLint
Cmpd MIC Solubility Human PPB (%) (µL/min/mg (µL/min/10x6 LogD7.4
(µg/mL) (µM) protein) cells)
(§13) ADME and toxicity for compounds were measured according to procedures outlined in the manuscript submitted in parallel to this one;2 other procedures were used for those compounds analysed by Monash University (in vitro ADME) or UCL (toxicity), both described in the main

[8] = Rat hepatocyte intrinsic clearance; assay type: in vitro ADME
[9] = system: MRC-5SV2 (human lung fibroblast cell line); experiment: Toxicity against MRC-5SV2; assay type: cell-based
Procedure: as §13

[10] = system: PMM (primary mouse macrophages); experiment: Toxicity against PMM; assay type: cell-based
Procedure: as §13

[11] = system: HEK293 cells; experiment: HEK293 toxicity, 96-well dose-response (UCL; MTT or resazurin, with or without recovery); assay type: cell-based, human; details: for spread of Dmax values comparing recovery and non-recovery conditions: 32 μg/mL
Procedure: as §2, §3, §4, §5, §6, §7, §8, §9, §10, §11, §12

[12] = system: S. aureus ATCC 25923 (methicillin-susceptible); experiment: In vitro antibacterial activity, MIC (UCL), MSSA; assay type: cell-based, Staphylococcus aureus; details: for MIC: Staphylococcus aureus, read-out: MSSA MIC
How it was run: as §1

[13] = human plasma, NEU, read-out: Human PPB (NEU) (converted)
[14] = NEU, read-out: Aqueous Solubility (NEU)
[15] = rat hepatocytes, NEU, read-out: Rat Hep CLint (NEU)
[16] = read-out: Human PPB (converted)
[17] = rat, hepatocytes, Figure 4, read-out: Rat Hep CLint

fraction unbound [1, 13] | MIC ([2]; read-out: VRE MIC (UCL)) [µg/mL] | microsomal CLint [3] [µL/min/mg] | MIC ([5]; UCL, read-out: MRSA MIC (UCL)) [µg/mL] | solubility [6, 14] [µM] | chromatographic logD [7] | hepatocyte CLint [8, 15] [µL/min/1e6 cells] | MIC ([2]; read-out: VRE MIC) [µg/mL] | MIC ([5]; read-out: MRSA MIC) [µg/mL] | SMILES | CC50 at 24 h [4] [µg/mL] | MRC5 TC50 [9] [µg/mL] | PMM TC50 [10] [µg/mL] | spread of Dmax values comparing recovery and non-recovery conditions [11] | further results
0.0031 | > 32 | 224 | > 32 | 21 (≈ 6.31 µg/mL) | 4.2 | 34.5 | – | – | c1ccc(-c2nc3n(c2-c2ccc4occc4c2)CCC3)cc1 [OSA_000869] | 13.7 (≈ 45.6 µM) | – | – | – | –
– | – | – | – | – | – | – | – | – | Fc1ccc(Nc2c(-c3ccccn3)nc3sccn23)cc1 [compound 984] | – | 2.0 | 9.9 | small difference | VRE MIC [2]: 8 µg/mL; MSSA MIC [12]: 4 µg/mL; MRSA MIC [5]: 8 µg/mL
0.0074 | 8 (≈ 24.4 µM) | 105 | 4 (≈ 12.2 µM) | 6 (≈ 1.96 µg/mL) | 3.3 | > 300 | – | – | c1ccc(-c2nc3ccccn3c2-c2ccc3sccc3c2)nc1 [OSA_000871] | 5.5 (≈ 16.8 µM) | – | – | – | –
0.017 | > 32 | 36.8 | > 32 | 89 (≈ 26.8 µg/mL) | 3.2 | 44.5 | – | – | c1cc(-c2nc3n(c2-c2ccc4occc4c2)CCC3)ccn1 [OSA_000862] | > 32 | – | – | – | –
0.015 | > 32 | 35.5 | > 32 | 344 (≈ 104 µg/mL) | 3.2 | 40.8 | – | – | c1cncc(-c2nc3n(c2-c2ccc4occc4c2)CCC3)c1 [OSA_000861] | > 32 | – | – | – | –
– | – | – | – | – | – | – | > 32 | > 32 | c1cc(-c2nc3n(c2-c2ccc4occc4c2)CCC3)ccn1 [compound 862] | – | – | – | – | HEK293 toxicity classification, in words [11]: least toxic; also recorded: non-toxic; toxicity in the acute exposure by MTT ([11]; no recovery, MTT): more than 50%; activity against MRSA, in words [5]: inactive
– | – | – | – | – | – | – | 4 (≈ 11.5 µM) | 2 (≈ 5.77 µM) | CCCN(c1ccc(F)cc1)c1c(-c2ccccn2)nc2ccccn12 [compound 982] | – | 1.5 | 0.7 | small difference | fraction unbound [1, 16]: 0.007; VRE MIC [2]: 4 µg/mL; MIC [12]: 2 µg/mL (≈ 5.77 µM); MIC ([5]; 16 h, read-out: MRSA MIC): 2 µg/mL (≈ 5.77 µM); solubility ([6]; read-out: Aqueous Solubility): 3 µM (≈ 1.04 µg/mL); hepatocyte CLint [8, 17]: 108 µL/min/1e6 cells
– | – | – | – | – | – | – | > 32 | > 32 | c1ccc(-c2nc3n(c2-c2ccc4occc4c2)CCC3)cc1 [compound 869] | – | – | – | small difference | HEK293 toxicity classification, in words [11]: least toxic; activity against MRSA, in words [5]: inactive
– | – | – | – | – | – | – | 4 (≈ 11.2 µM) | 2 (≈ 5.58 µM) | Fc1ccc(N(CC2CC2)c2c(-c3ccccn3)nc3ccccn23)cc1 [compound 979] | – | 2.8 | 1.4 | small difference | VRE MIC [2]: 4 µg/mL; MIC [12]: 2 µg/mL (≈ 5.58 µM)
– | – | – | – | – | – | – | > 32 | > 32 | c1cncc(-c2nc3n(c2-c2ccc4occc4c2)CCC3)c1 [compound 861] | – | – | – | – | HEK293 toxicity classification, in words [11]: least toxic; Dmax (100 – viability%) ([11]; at highest tested concentration 32 μg/mL, all experiment variations): < 50%; activity against MRSA, in words [5]: inactive
– | – | – | – | – | – | – | 8 (≈ 22.2 µM) | 2 (≈ 5.55 µM) | CC(C)CN(c1ccc(F)cc1)c1c(-c2ccccn2)nc2ccccn12 [compound 983] | – | 19.5 | 8.3 | small difference | fraction unbound [1, 16]: 0.004; MIC [12]: 4 µg/mL (≈ 11.1 µM); MIC ([5]; 16 h, read-out: MRSA MIC): 2 µg/mL (≈ 5.55 µM); solubility ([6]; read-out: Aqueous Solubility): 8 µM (≈ 2.88 µg/mL); hepatocyte CLint [8, 17]: 234 µL/min/1e6 cells
